Measurements: paper PMC10509173, “Deep learning driven de novo drug design based on gastric proton pump structures” (Communications Biology, 2023)
Where “and” joins values, the source holds several entries; their conditions need not be identical. Identical values can stand only once.

Biological target: H+,K+-ATPase (Sus scrofa, UniProt P19156)
Experiment: Dose-dependent inhibition of H+,K+-ATPase activity, membrane fractions
Settings: for H+,K+-ATPase activity, raw data of dose-dependent inhibition: single replicate values
[1] = [PCAB] -3.30103 (log, unit not given)
[2] = [PCAB] -3.52288 (log, unit not given)
[3] = [PCAB] -4 (log, unit not given)
[4] = [PCAB] -4.30103 (log, unit not given)
[5] = [PCAB] -4.52288 (log, unit not given)
[6] = [PCAB] -5 (log, unit not given)
[7] = [PCAB] -5.52288 (log, unit not given)
[8] = [PCAB] -6 (log, unit not given)
[9] = [PCAB] -6.30103 (log, unit not given)
[10] = [PCAB] -7 (log, unit not given)
[11] = [PCAB] -8 (log, unit not given)
[12] = [PCAB] -11 (log, unit not given; possibly placeholder for no compound)

H+,K+-ATPase, sequence (P19156 2-1034 limits assumed): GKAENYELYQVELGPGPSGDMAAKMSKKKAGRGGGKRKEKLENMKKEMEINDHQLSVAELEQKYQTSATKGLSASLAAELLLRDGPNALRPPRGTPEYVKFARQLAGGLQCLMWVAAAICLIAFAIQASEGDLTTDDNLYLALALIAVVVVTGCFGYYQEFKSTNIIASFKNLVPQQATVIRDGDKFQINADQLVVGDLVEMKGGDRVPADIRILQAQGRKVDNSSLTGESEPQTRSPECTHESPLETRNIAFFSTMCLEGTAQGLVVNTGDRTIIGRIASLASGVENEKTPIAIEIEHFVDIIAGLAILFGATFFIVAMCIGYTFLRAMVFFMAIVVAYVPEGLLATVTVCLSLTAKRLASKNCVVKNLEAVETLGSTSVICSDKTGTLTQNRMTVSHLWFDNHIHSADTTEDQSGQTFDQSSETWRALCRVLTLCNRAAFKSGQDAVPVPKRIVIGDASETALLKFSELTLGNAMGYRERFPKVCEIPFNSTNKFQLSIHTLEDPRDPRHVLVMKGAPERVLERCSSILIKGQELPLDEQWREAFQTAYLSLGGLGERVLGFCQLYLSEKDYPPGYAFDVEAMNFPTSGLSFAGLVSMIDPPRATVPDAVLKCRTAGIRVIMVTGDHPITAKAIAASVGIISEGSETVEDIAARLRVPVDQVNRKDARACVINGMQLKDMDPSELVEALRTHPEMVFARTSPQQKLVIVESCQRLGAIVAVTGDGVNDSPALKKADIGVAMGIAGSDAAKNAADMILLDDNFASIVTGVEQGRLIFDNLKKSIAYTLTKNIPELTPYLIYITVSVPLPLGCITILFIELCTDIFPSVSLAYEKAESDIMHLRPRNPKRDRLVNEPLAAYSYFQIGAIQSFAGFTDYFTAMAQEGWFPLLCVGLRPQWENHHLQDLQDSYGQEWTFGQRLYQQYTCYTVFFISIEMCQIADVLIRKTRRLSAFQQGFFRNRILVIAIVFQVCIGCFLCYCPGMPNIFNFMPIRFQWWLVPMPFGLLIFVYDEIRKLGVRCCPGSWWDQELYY
H+,K+-ATPase, sequence (P18434 whole entry partner): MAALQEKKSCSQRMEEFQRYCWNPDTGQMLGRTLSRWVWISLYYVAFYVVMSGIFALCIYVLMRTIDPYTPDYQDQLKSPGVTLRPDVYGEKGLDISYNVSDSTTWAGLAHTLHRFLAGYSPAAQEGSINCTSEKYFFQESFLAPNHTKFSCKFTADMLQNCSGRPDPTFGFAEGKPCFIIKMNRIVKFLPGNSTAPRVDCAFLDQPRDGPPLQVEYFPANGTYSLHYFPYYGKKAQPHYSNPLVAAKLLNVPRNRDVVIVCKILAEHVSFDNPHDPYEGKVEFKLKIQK

SMILES | IC50 [µM] | H+,K+-ATPase activity, raw data of dose-dependent inhibition [1] | H+,K+-ATPase activity, raw data of dose-dependent inhibition [2] | H+,K+-ATPase activity, raw data of dose-dependent inhibition [3] | H+,K+-ATPase activity, raw data of dose-dependent inhibition [4] | H+,K+-ATPase activity, raw data of dose-dependent inhibition [5] | H+,K+-ATPase activity, raw data of dose-dependent inhibition [6] | H+,K+-ATPase activity, raw data of dose-dependent inhibition [7] | H+,K+-ATPase activity, raw data of dose-dependent inhibition [8] | H+,K+-ATPase activity, raw data of dose-dependent inhibition [9] | H+,K+-ATPase activity, raw data of dose-dependent inhibition [10] | H+,K+-ATPase activity, raw data of dose-dependent inhibition [11] | H+,K+-ATPase activity, raw data of dose-dependent inhibition [12]
CNCC#CCn1ccc2cccc(C#Cc3ccccc3)c21 [DQ-14] | > 120 | 27.73 and 26.74 and 25.35 and 26.06 | 28.44 and 23.96 and 24.12 and 24.35 | 60.7 and 61.39 and 60.36 and 56.79 | 84.92 and 80.56 and 95.68 and 93.2 and 92.03 and 93.46 | 87.04 and 84.8 and 98.89 and 98.98 and 99.17 and 99.96 | 106.23 and 102.41 and 111.55 and 99.92 and 109.43 and 110.94 | 106.37 and 107.48 and 116.43 and 116.24 and 113.84 and 116.41 | 99.88 and 98.19 and 102.47 and 100.9 and 103.05 and 104.28 | 101.13 and 91.4 and 101.1 and 101.3 | 93.06 and 99.72 and 100.85 and 100.56 and 98.57 | 95.47 and 97.96 and 97.95 and 99.07 and 96.42 and 98.64 | 103.16 and 99.44 and 101.23 and 99.08 and 99.88 and 99.77
CNCC#CCOCc1cc(Cl)ccc1-c1ccc(Cl)c(F)c1 [DQ-04] | 33.9 ± 3.8 | 0.25 and -0.25 and -0.38 and 0.38 and -0.3 and -3.39 | 1.96 and 3.36 and 3.54 and 3.3 and 3.08 and 0.78 | 36.71 and 36.26 and 38.13 and 35.18 and 35.01 and 32.77 | 44 and 42.16 and 21.74 and 21.63 and 20.87 and 17.27 | 54.64 and 55.71 and 47.64 and 52.61 and 61.59 and 63.39 | 84.91 and 81.14 and 76.84 and 80.91 and 85.5 and 81.75 | 98.14 and 98.72 and 86.17 and 97.35 and 92.86 and 93.01 | 100.43 and 99.64 (2×) and 95.5 and 94.06 and 98.22 | 97.37 and 99.94 and 104.98 and 87.87 and 104.85 and 101.28 | 98.23 and 101.36 and 99.76 and 99.57 and 100.69 and 98.11 | 101.57 and 100.61 and 99.59 and 102.17 and 101.49 and 97.6 | 101.41 and 100.27 and 102.04 and 101.19 and 98.33 and 99.11
CNCc1ccc(OCc2c(Cl)cccc2OCc2ccccc2)cc1 [DQ-19] | 3.52 ± 0.22 | -0.65 and -0.09 and -0.18 (2×) and 0.39 and -0.03 | 1.38 and 2.32 and 2.04 and 1.91 and 2.46 and 2.13 | 10.36 and 10.46 and 8.18 and 7.73 and 7.75 and 7.91 | 16.41 and 15.72 and 6.63 and 6.46 and 5.99 and 5.93 | 18.62 (2×) and 17.28 and 17.05 and 16.78 and 16.42 | 27.04 and 27.03 and 26.28 and 26.11 and 26 and 25.46 | 56.8 and 57.52 and 52.1 and 50.99 and 52.47 and 50.98 | 77.41 and 78.78 and 71.45 and 74.76 and 72.12 and 73.47 | 84.8 and 85.13 and 83.98 and 84.02 and 82.9 and 83.28 | 91.5 and 92.21 and 96.4 and 96.06 and 98.84 and 94.11 | 95.21 and 97 and 100.13 and 98.68 and 100.43 and 97.42 | 95.94 and 97.66 and 99.42 and 99.81 and 100.11 and 99.03
CNCC#CCn1ccc2cccc(C#Cc3cccc(Cl)c3)c21 [DQ-16] | 89.4 ± 13.5 | 24.42 and 42.17 | 44.41 and 66.92 | 87.71 and 67.55 | 103.26 and 71.7 and 101.95 and 107.11 and 107.49 and 103.62 | 107.4 and 104.96 and 100.44 and 100.8 and 99.65 and 99.6 | 105.07 and 103.28 and 102.18 and 95.06 and 104.24 and 100.65 | 112.46 and 113.5 and 115.83 and 115.26 and 112.62 and 114.01 | 106.69 and 106.05 and 103.52 and 103.99 and 105.16 and 107.1 | 101.16 and 99.6 and 102.96 and 104.58 and 100.87 and 100.34 | 95.95 and 99.26 and 100.97 and 100.31 and 101.14 and 100.94 | 95.83 and 94.95 and 90.34 and 101.71 and 99.53 and 101.3 | 95.82 and 93.84 and 98.4 and 100.56 and 99.28 and 103.27
